From publication PMC5099554 (British Journal of Clinical Pharmacology, 2016)
Where two headings read alike, the source gives them in different places.

Columns and labels:
[1] = healthy male subjects, plasma; for AUC(0-inf): AUCinf; for AUC(0-inf) / AUC(0-t): geometric mean; for AUC(0-t): AUClast; for half-life: t 1/2, geometric mean
CYP3A4 = CYP3A4 (Homo sapiens, UniProt P08684); details: in vitro; cited from earlier work
CYP enzyme = details: in vitro studies; cited from earlier work
CYP2C9 = CYP2C9 (Homo sapiens, UniProt P11712); details: in vitro; cited from earlier work
Sequence of CYP2C9 (P11712 whole entry): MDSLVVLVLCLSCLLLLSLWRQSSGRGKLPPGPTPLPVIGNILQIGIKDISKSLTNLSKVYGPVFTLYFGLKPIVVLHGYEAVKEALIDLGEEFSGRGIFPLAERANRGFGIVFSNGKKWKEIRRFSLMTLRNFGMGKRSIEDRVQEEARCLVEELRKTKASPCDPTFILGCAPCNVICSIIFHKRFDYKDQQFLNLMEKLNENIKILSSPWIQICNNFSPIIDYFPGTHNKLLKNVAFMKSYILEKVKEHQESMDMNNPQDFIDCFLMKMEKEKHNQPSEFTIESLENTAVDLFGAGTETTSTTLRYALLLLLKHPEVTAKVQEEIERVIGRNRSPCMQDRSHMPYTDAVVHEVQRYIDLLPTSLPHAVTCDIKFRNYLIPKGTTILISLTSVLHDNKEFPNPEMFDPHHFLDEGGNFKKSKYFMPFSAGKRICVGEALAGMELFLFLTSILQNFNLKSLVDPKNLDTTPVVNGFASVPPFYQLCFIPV

[2] = male, human, in vivo, After FRG, after 2 weeks of fermented red ginseng
[3] = male, human, in vivo, Before FRG, before fermented red ginseng

Sequence of CYP3A4 (P08684 whole entry): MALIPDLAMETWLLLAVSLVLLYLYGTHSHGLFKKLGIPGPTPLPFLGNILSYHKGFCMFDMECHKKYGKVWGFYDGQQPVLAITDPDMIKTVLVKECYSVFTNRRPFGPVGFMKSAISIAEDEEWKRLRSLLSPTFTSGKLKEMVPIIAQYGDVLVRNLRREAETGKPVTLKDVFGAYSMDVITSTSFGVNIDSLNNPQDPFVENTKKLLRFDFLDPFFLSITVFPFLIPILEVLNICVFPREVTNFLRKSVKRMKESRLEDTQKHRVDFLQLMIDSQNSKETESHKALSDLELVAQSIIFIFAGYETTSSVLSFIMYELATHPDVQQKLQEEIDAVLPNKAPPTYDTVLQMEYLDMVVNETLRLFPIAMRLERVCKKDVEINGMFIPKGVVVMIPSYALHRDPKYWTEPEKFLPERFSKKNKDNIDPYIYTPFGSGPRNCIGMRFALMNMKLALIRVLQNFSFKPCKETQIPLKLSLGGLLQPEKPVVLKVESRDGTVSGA

COc1ccc2[nH]c([S+]([O-])Cc3ncc(C)c(OC)c3C)nc2c1 (centres unmarked) [Omeprazole, omeprazole]
AUCinf, geometric mean ratio, After FRG: Before FRG (90% CI) [1]: 0.936 (0.819–1.069)
AUClast, geometric mean ratio, After FRG: Before FRG (90% CI) [1]: 0.931 (0.812–1.067)
C max, geometric mean ratio, After FRG: Before FRG (90% CI) [1]: 0.892 (0.747–1.066)
t max (median), Before FRG ([1]; before fermented red ginseng): 2.000 h
AUC(0-inf) [1, 2]: 1280 ng·h/mL
AUC(0-inf) [1, 3]: 1370 ng·h/mL
AUC(0-t) [1, 2]: 1260 ng·h/mL
AUC(0-t) [1, 3]: 1350 ng·h/mL
half-life [1, 2]: 1.22 h
half-life [1, 3]: 1.19 h

CC(C)=CCC[C@](C)(O)[C@H]1CC[C@]2(C)[C@@H]1[C@H](O)C[C@@H]1[C@@]3(C)CC[C@H](O)C(C)(C)[C@@H]3[C@@H](O)C[C@]12C [PPT, protopanaxatriol]
inhibition of CYP3A4 activity (CYP3A4): potent inhibition

Cn1c(=O)[nH]c2ncn(C)c2c1=O [Paraxanthine, paraxanthine]
AUCinf, geometric mean ratio, After FRG: Before FRG (90% CI) [1]: 1.432 (1.125–1.823)
AUClast, geometric mean ratio, After FRG: Before FRG (90% CI) [1]: 1.017 (0.943–1.096)
C max, geometric mean ratio, After FRG: Before FRG (90% CI) [1]: 0.979 (0.906–1.057)
AUC(0-inf) [1, 2]: 53900 ng·h/mL
AUC(0-inf) [1, 3]: 37600 ng·h/mL
AUC(0-t) [1, 2]: 24600 ng·h/mL
AUC(0-t) [1, 3]: 24200 ng·h/mL
half-life [1, 2]: 20.7 h
half-life [1, 3]: 11.8 h
Tmax ([1]; male, human, in vivo, t max (median), After FRG, after 2 weeks of fermented red ginseng): 6 h

CC(C)=CCC[C@](C)(O[C@@H]1O[C@H](CO[C@@H]2OC[C@H](O)[C@H](O)[C@H]2O)[C@@H](O)[C@H](O)[C@H]1O)[C@H]1CC[C@]2(C)[C@@H]1[C@H](O)C[C@@H]1[C@@]3(C)CC[C@H](O[C@@H]4O[C@H](CO)[C@@H](O)[C@H](O)[C@H]4O[C@@H]4O[C@H](CO)[C@@H](O)[C@H](O)[C@H]4O)C(C)(C)[C@@H]3CC[C@]12C [Rb2, ginsenoside Rb2]
effect on CYP enzyme activity (CYP enzyme): do not affect

CC(C)=CCC[C@](C)(O[C@@H]1O[C@H](CO[C@@H]2O[C@@H](CO)[C@H](O)[C@H]2O)[C@@H](O)[C@H](O)[C@H]1O)[C@H]1CC[C@]2(C)[C@@H]1[C@H](O)C[C@@H]1[C@@]3(C)CC[C@H](O[C@@H]4O[C@H](CO)[C@@H](O)[C@H](O)[C@H]4O[C@@H]4O[C@H](CO)[C@@H](O)[C@H](O)[C@H]4O)C(C)(C)[C@@H]3CC[C@]12C [Rc, ginsenoside Rc]
effect on CYP enzyme activity (CYP enzyme): do not affect

CC(C)=CCC[C@](C)(O[C@@H]1O[C@H](CO)[C@@H](O)[C@H](O)[C@H]1O)[C@H]1CC[C@]2(C)[C@@H]1[C@H](O)C[C@@H]1[C@@]3(C)CC[C@H](O)C(C)(C)[C@@H]3[C@@H](O[C@@H]3O[C@H](CO)[C@@H](O)[C@H](O)[C@H]3O)C[C@]12C [Rg1, ginsenoside Rg1]
effect on CYP enzyme activity (CYP enzyme): do not affect

CC(C)=CCC[C@](C)(O[C@@H]1O[C@H](CO)[C@@H](O)[C@H](O)[C@H]1O)[C@H]1CC[C@]2(C)[C@@H]1[C@H](O)C[C@@H]1[C@@]3(C)CC[C@H](O)C(C)(C)[C@@H]3CC[C@]12C [compound K, 20‐O‐(β‐D‐glucopyranosyl)‐20(S)‐protopanaxadiol]
inhibition of CYP3A4 activity (CYP3A4): moderate inhibition
inhibition of CYP2C9 activity (CYP2C9): moderate inhibition

CC(C)=CCC[C@](C)(O[C@@H]1O[C@H](CO[C@@H]2O[C@H](CO)[C@@H](O)[C@H](O)[C@H]2O)[C@@H](O)[C@H](O)[C@H]1O)[C@H]1CC[C@]2(C)[C@@H]1[C@H](O)C[C@@H]1[C@@]3(C)CC[C@H](O[C@@H]4O[C@H](CO)[C@@H](O)[C@H](O)[C@H]4O[C@@H]4O[C@H](CO)[C@@H](O)[C@H](O)[C@H]4O)C(C)(C)[C@@H]3CC[C@]12C [ginsenoside Rb1]
effect on CYP enzyme activity (CYP enzyme): do not affect

CC(C)=CCC[C@](C)(O)[C@H]1CC[C@]2(C)[C@@H]1[C@H](O)C[C@@H]1[C@@]3(C)CC[C@H](O[C@@H]4O[C@H](CO)[C@@H](O)[C@H](O)[C@H]4O)C(C)(C)[C@@H]3CC[C@]12C [ginsenoside Rh2]
inhibition of CYP3A4 activity (CYP3A4): moderate inhibition
inhibition of CYP2C9 activity (CYP2C9): moderate inhibition
